These results are taken from PMC4407702 (International journal of pharmaceutics, 2011).

≈ marks a conversion by molar mass, not a printed value. Where “and” joins values, the source holds several entries; their conditions need not be identical. Equal entries are not always repeated. Where two headings read alike, the source gives them in different places.

The nature of data set [1]: Aqueous solubility study. The conditions noted are these: distilled deionized water, 25 °C, thermodynamic from solid. The class given is physicochemical.
Data set [2] concerns Caco-2 cell monolayers. To be noted: ref Ucpinar and Stavchansky, 2003; cited from earlier work.
In data set [3] the test system is MDCK-MDR1 cell monolayers. To be noted: ref Jain et al., 2005; cited from earlier work.
In data set [4] the target is SVCT (Canis lupus familiaris, UniProt A8CX01). The experiment in a line: Inhibition of [14C]AA uptake in MDCK-MDR1 cells. The conditions noted are these: 200 μM unlabeled compound, [14C]AA 23.5 μM. The class given is cell-based, canine.
SVCT (Canis lupus familiaris, UniProt A8CX01), sequence (A8CX01 1-605): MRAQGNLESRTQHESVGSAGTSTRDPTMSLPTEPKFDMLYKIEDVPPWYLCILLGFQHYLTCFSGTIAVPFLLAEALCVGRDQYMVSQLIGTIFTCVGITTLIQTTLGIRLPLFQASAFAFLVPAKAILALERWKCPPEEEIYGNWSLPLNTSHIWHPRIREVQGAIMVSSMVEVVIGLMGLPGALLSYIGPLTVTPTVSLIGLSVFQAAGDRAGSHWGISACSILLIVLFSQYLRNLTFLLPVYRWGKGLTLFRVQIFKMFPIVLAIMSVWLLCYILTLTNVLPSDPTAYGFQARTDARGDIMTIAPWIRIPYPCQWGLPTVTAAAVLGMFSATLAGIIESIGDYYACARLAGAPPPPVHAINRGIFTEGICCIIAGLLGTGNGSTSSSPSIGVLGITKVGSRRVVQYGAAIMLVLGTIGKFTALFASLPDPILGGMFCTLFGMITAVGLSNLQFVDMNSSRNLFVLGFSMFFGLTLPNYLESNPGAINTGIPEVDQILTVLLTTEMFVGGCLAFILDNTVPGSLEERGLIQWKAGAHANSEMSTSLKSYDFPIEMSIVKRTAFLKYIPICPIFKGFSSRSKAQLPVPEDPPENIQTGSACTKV
The target of data set [5] is SVCT (Homo sapiens, UniProt Q9UHI7). The experiment in a line: Inhibition of [14C]AA uptake in Caco-2 cells. The class given is cell-based. The conditions noted are these: 200 μM unlabeled compound, [14C]AA 23.5 μM.
SVCT (Homo sapiens, UniProt Q9UHI7), sequence (Q9UHI7 whole entry): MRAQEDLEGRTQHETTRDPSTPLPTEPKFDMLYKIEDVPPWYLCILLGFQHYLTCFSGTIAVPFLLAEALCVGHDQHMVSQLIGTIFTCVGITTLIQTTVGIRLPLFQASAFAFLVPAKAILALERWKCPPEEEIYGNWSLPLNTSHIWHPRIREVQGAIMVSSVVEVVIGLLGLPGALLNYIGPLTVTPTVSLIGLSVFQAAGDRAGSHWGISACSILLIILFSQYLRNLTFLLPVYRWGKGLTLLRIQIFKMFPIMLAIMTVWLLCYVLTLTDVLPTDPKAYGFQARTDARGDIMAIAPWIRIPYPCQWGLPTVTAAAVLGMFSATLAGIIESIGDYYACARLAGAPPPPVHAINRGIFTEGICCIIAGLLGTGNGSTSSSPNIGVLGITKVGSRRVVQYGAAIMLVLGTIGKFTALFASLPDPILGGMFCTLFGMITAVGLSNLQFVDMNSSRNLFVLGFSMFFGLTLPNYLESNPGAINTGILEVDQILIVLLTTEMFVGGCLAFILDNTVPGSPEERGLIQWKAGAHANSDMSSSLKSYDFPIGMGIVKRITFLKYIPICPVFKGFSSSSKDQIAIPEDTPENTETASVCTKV
Data set [6] in a line: Transepithelial transport across Caco-2 cell monolayers. The class given is in vitro ADME. The conditions noted are these: human, Caco-2. On the technique in general: Caco-2 cells form a polarised layer with tight junctions and transporters.
Data set [7] deals with Caco-2 cell monolayers. Described as above. The class given is in vitro ADME.
The mark [8] stands for this setting: Caco-2, [14C]AA 23.5 μM or AA-Su-Saq 25 μM donor, 3 h.

As a reminder, the solubility is the concentration that dissolves in the medium under given conditions. With `CC(C)(C)NC(=O)[C@@H]1C[C@@H]2CCCC[C@@H]2CN1C[C@@H](O)[C@H](Cc1ccccc1)NC(=O)[C@H](CC(N)=O)NC(=O)c1ccc2ccccc2n1` [Saq, Saquinavir], in data set [1], the concentration in solution (solubility at 24 h) was 1750 ± 290 µM (≈ 1170 µg/mL). Also, in data set [2], the “P(A–B)” value is 0.93 cm/s, × 10^−6 and 0.93 ±0.10 cm/s, × 10^−6; the “P(B–A)” value is 20.39 ± 1.53 cm/s, × 10^−6. Further, in data set [3], the “P(A–B)” value is given as 0.463 ± 0.025 cm/s, × 10^−6; the “P(B–A)” value is recorded as 19.9 ± 1.70 cm/s, × 10^−6; the “PA–B” value was 4.63e-07 cm/s.
The Papp A→B is how fast a substance crosses the layer from the apical side. Read a low Papp A→B as poor permeation. What is called Papp B→A is the apparent permeability from the basolateral to the apical side of a cell layer. As to `O=C1O[C@H]([C@@H](O)CO)C(O)=C1O` [AA, L-Ascorbic acid], in data set [4], the “Uptake of [14C]AA diminished (inhibition)” value came out at 65%. Also, in data set [5], the “Inhibition of [14C]AA uptake” value is recorded as 66%. In data set [6], this molecule had a Papp A→B at 3 h, 23.5 μM of 17.6 ± 0.39 ×10⁻⁶ cm/s and a Papp B→A at 3 h, 23.5 μM of 15.5 ± 3.11 ×10⁻⁶ cm/s. Further, in data set [7] (setting [8]), the “P(A–B)” value was 17.6 ± 0.39 cm/s, × 10^−6 and the “P(B–A)” value is on record as 15.5 ± 3.11 cm/s, × 10^−6. In addition, in data set [7] (Caco-2 vs MDCK-MDR1), the “PA–B and PB–A in Caco-2 cells higher than in MDCK-MDR1 cells” value is “about 2 fold”.
